ChEMBL document CHEMBL1156679, “Inhibition of immune complex-mediated neutrophil oxidative metabolism: a pharmacophore model for 3-phenylcoumarin derivatives using GRIND-based 3D-QSAR and 2D-QSAR procedures” (Eur J Med Chem, 2008)

Tested on: Neutrophil
Test: Inhibition of immune complex-stimulated neutrophil oxidative metabolism in New Zealand white rabbit neutrophils assessed as ROS generation at 50 uM after 30 mins by luminol enhanced chemiluminescence assay
Type: functional
Details: Oryctolagus cuniculus, 0.5 h

Row | Structure (SMILES) | inhibition at 50 µM
1 | O=c1oc2ccc(O)cc2cc1-c1ccccc1O | 99%
2 | O=c1oc2ccc(O)cc2cc1-c1ccc(O)c(O)c1 | 99.2%
3 | O=c1oc2cc(O)c(O)cc2cc1-c1ccc(O)c(O)c1 | 92.4%
4 | O=c1oc2cc(O)c(O)cc2cc1-c1ccc2c(c1)OCO2 | 99.8%
5 | COC(=O)Oc1cccc(-c2cc3cc(OC(=O)OC)ccc3oc2=O)c1 | 66.3%
6 | O=c1oc2ccc(O)cc2cc1-c1ccccc1 | 21.8%
7 | COC(=O)Oc1ccc2oc(=O)c(-c3ccc4c(c3)OCO4)cc2c1 | 13.7%
8 | COC(=O)Oc1cc2cc(-c3ccc4c(c3)OCO4)c(=O)oc2cc1OC(=O)OC | 99.4%
9 | O=c1oc2ccccc2cc1-c1ccc2c(c1)OCO2 | 10.1%
10 | COC(=O)Oc1ccc2oc(=O)c(-c3ccccc3)cc2c1 | 50.5%

Tested on: Neutrophil
Test: Inhibition of immune complex-stimulated neutrophil oxidative metabolism in New Zealand white rabbit neutrophils assessed as ROS generation after 30 mins by luminol enhanced chemiluminescence assay
Type: functional, cell-based
Details: Oryctolagus cuniculus, 0.5 h, read-out: IC50

Row | Structure (SMILES) | IC50
11 | O=c1oc2ccc(O)cc2cc1-c1ccccc1 | > 50 µM
12 | COC(=O)Oc1ccc2oc(=O)c(-c3ccc4c(c3)OCO4)cc2c1 | > 50 µM
13 | O=c1oc2ccccc2cc1-c1ccc2c(c1)OCO2 | > 50 µM
14 | COC(=O)Oc1ccc2oc(=O)c(-c3ccccc3)cc2c1 | 31.2 µM

Stronger by IC50, values ahead:

Row | IC50 | Structure (SMILES)
15 | 2.8 µM | O=c1oc2ccc(O)cc2cc1-c1ccccc1O
16 | 4.9 µM | O=c1oc2ccc(O)cc2cc1-c1ccc(O)c(O)c1
17 | 13.4 µM | O=c1oc2cc(O)c(O)cc2cc1-c1ccc(O)c(O)c1
18 | 0.7 µM | O=c1oc2cc(O)c(O)cc2cc1-c1ccc2c(c1)OCO2
19 | 21.7 µM | COC(=O)Oc1cccc(-c2cc3cc(OC(=O)OC)ccc3oc2=O)c1
20 | 0.7 µM | COC(=O)Oc1cc2cc(-c3ccc4c(c3)OCO4)c(=O)oc2cc1OC(=O)OC

Same assay, conditions: Oryctolagus cuniculus, 0.5 h, read-out: pIC50 (converted)

Row | IC50 | Structure (SMILES)
21 | 2.82 µM | O=c1oc2ccc(O)cc2cc1-c1ccccc1O
22 | 4.9 µM | O=c1oc2ccc(O)cc2cc1-c1ccc(O)c(O)c1
23 | 13.5 µM | O=c1oc2cc(O)c(O)cc2cc1-c1ccc(O)c(O)c1
24 | 21.9 µM | COC(=O)Oc1cccc(-c2cc3cc(OC(=O)OC)ccc3oc2=O)c1
25 | 0.661 µM | COC(=O)Oc1cc2cc(-c3ccc4c(c3)OCO4)c(=O)oc2cc1OC(=O)OC
26 | 30.9 µM | COC(=O)Oc1ccc2oc(=O)c(-c3ccccc3)cc2c1

Tested on: not listed separately
Test: Cytotoxicity against New Zealand white rabbit neutrophils assessed as cell viability at 50 uM after 30 mins by trypan blue exclusion test
Type: cell-based, Oryctolagus cuniculus, Neutrophil
Details: read-out: Activity

Row | Structure (SMILES) | viability at 0.5 h, 50 µM
27 | O=c1oc2ccc(O)cc2cc1-c1ccccc1O | 94.8%
28 | O=c1oc2ccc(O)cc2cc1-c1ccc(O)c(O)c1 | 92.8%
29 | O=c1oc2cc(O)c(O)cc2cc1-c1ccc(O)c(O)c1 | 92%
30 | O=c1oc2cc(O)c(O)cc2cc1-c1ccc2c(c1)OCO2 | 93.2%
31 | COC(=O)Oc1cccc(-c2cc3cc(OC(=O)OC)ccc3oc2=O)c1 | 94%
32 | O=c1oc2ccc(O)cc2cc1-c1ccccc1 | 92.3%
33 | COC(=O)Oc1ccc2oc(=O)c(-c3ccc4c(c3)OCO4)cc2c1 | 95.5%
34 | COC(=O)Oc1cc2cc(-c3ccc4c(c3)OCO4)c(=O)oc2cc1OC(=O)OC | 95%
35 | O=c1oc2ccccc2cc1-c1ccc2c(c1)OCO2 | 96%
36 | COC(=O)Oc1ccc2oc(=O)c(-c3ccccc3)cc2c1 | 93.8%

Tested on: not listed separately
Test: Cytotoxicity against New Zealand white rabbit neutrophils assessed as LDH release at 50 uM after 30 mins by spectrophotometry
Type: cell-based, Oryctolagus cuniculus
Details: neutrophil, 0.5 h

Row | Structure (SMILES) | Activity
37 | O=c1oc2ccc(O)cc2cc1-c1ccccc1O | 9.8%
38 | O=c1oc2ccc(O)cc2cc1-c1ccc(O)c(O)c1 | 11.9%
39 | O=c1oc2cc(O)c(O)cc2cc1-c1ccc(O)c(O)c1 | 10.5%
40 | O=c1oc2cc(O)c(O)cc2cc1-c1ccc2c(c1)OCO2 | 15.3%
41 | COC(=O)Oc1cccc(-c2cc3cc(OC(=O)OC)ccc3oc2=O)c1 | 9.3%
42 | O=c1oc2ccc(O)cc2cc1-c1ccccc1 | 10.7%
43 | COC(=O)Oc1ccc2oc(=O)c(-c3ccc4c(c3)OCO4)cc2c1 | 11.4%
44 | COC(=O)Oc1cc2cc(-c3ccc4c(c3)OCO4)c(=O)oc2cc1OC(=O)OC | 11.9%
45 | O=c1oc2ccccc2cc1-c1ccc2c(c1)OCO2 | 11.9%
46 | COC(=O)Oc1ccc2oc(=O)c(-c3ccccc3)cc2c1 | 11.3%

Tested on: Neutrophil
Test: Inhibition of immune complex-stimulated neutrophil oxidative metabolism in New Zealand white rabbit neutrophils assessed as ROS generation after 30 mins by lucigenin enhanced chemiluminescence assay
Type: functional, cell-based
Details: Oryctolagus cuniculus, 0.5 h, read-out: IC50

Row | Structure (SMILES) | IC50
47 | O=c1oc2ccc(O)cc2cc1-c1ccccc1 | 8 µM
48 | COC(=O)Oc1ccc2oc(=O)c(-c3ccc4c(c3)OCO4)cc2c1 | 5.4 µM
49 | O=c1oc2ccccc2cc1-c1ccc2c(c1)OCO2 | > 50 µM
50 | COC(=O)Oc1ccc2oc(=O)c(-c3ccccc3)cc2c1 | 7.4 µM

The next lines start with the values.

Row | IC50 | Structure (SMILES)
51 | 2.5 µM | O=c1oc2ccc(O)cc2cc1-c1ccccc1O
52 | 4.4 µM | O=c1oc2ccc(O)cc2cc1-c1ccc(O)c(O)c1
53 | 5.2 µM | O=c1oc2cc(O)c(O)cc2cc1-c1ccc(O)c(O)c1
54 | 0.7 µM | O=c1oc2cc(O)c(O)cc2cc1-c1ccc2c(c1)OCO2
55 | 6.9 µM | COC(=O)Oc1cccc(-c2cc3cc(OC(=O)OC)ccc3oc2=O)c1
56 | 0.7 µM | COC(=O)Oc1cc2cc(-c3ccc4c(c3)OCO4)c(=O)oc2cc1OC(=O)OC

Same assay, conditions: Oryctolagus cuniculus, 0.5 h, read-out: pIC50 (converted)

Row | Structure (SMILES) | IC50
57 | O=c1oc2ccc(O)cc2cc1-c1ccccc1 | 7.94 µM
58 | COC(=O)Oc1ccc2oc(=O)c(-c3ccc4c(c3)OCO4)cc2c1 | 5.37 µM
59 | COC(=O)Oc1ccc2oc(=O)c(-c3ccccc3)cc2c1 | 7.41 µM

The remaining lines, values ahead:

Row | IC50 | Structure (SMILES)
60 | 2.51 µM | O=c1oc2ccc(O)cc2cc1-c1ccccc1O
61 | 4.47 µM | O=c1oc2ccc(O)cc2cc1-c1ccc(O)c(O)c1
62 | 5.25 µM | O=c1oc2cc(O)c(O)cc2cc1-c1ccc(O)c(O)c1
63 | 0.724 µM | O=c1oc2cc(O)c(O)cc2cc1-c1ccc2c(c1)OCO2
64 | 6.92 µM | COC(=O)Oc1cccc(-c2cc3cc(OC(=O)OC)ccc3oc2=O)c1
65 | 0.692 µM | COC(=O)Oc1cc2cc(-c3ccc4c(c3)OCO4)c(=O)oc2cc1OC(=O)OC

Tested on: Neutrophil
Test: Inhibition of immune complex-stimulated neutrophil oxidative metabolism in New Zealand white rabbit neutrophils assessed as ROS generation at 50 uM after 30 mins by lucigenin enhanced chemiluminescence assay
Type: functional
Details: Oryctolagus cuniculus, 0.5 h

Row | Structure (SMILES) | inhibition at 50 µM
66 | O=c1oc2ccc(O)cc2cc1-c1ccccc1O | 99.9%
67 | O=c1oc2ccc(O)cc2cc1-c1ccc(O)c(O)c1 | 98.7%
68 | O=c1oc2cc(O)c(O)cc2cc1-c1ccc(O)c(O)c1 | 94.9%
69 | O=c1oc2cc(O)c(O)cc2cc1-c1ccc2c(c1)OCO2 | 99.6%
70 | COC(=O)Oc1cccc(-c2cc3cc(OC(=O)OC)ccc3oc2=O)c1 | 82.1%
71 | O=c1oc2ccc(O)cc2cc1-c1ccccc1 | 83.5%
72 | COC(=O)Oc1ccc2oc(=O)c(-c3ccc4c(c3)OCO4)cc2c1 | 68%
73 | COC(=O)Oc1cc2cc(-c3ccc4c(c3)OCO4)c(=O)oc2cc1OC(=O)OC | 99%
74 | O=c1oc2ccccc2cc1-c1ccc2c(c1)OCO2 | 5.7%
75 | COC(=O)Oc1ccc2oc(=O)c(-c3ccccc3)cc2c1 | 80.5%
